Assay results taken from paper PMC8972196, “A Set of Experimentally Validated Decoys for the Human CC Chemokine Receptor 7 (CCR7) Obtained by Virtual Screening” (Frontiers in Pharmacology, 2022).
Where two headings read alike, the source gives them in different places.

Target: T1, human CCR7 (Homo sapiens, UniProt P32248)
T1 construct: expressed in transfected cells
T1 sequence (P32248 25-378): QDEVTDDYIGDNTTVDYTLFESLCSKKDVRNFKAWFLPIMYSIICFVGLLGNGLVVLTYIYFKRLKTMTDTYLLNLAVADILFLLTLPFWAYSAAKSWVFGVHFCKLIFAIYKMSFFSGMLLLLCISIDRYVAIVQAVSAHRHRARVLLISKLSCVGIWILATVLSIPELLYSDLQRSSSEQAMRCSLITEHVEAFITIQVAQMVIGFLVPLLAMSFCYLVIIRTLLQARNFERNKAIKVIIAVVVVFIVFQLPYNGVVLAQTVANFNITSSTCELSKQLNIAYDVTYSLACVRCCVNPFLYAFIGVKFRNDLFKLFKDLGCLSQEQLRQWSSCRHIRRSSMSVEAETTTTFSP
Assay: CCL19-induced calcium mobilization assay, U87.CD4 cells expressing CCR7
Format: cell-based
Conditions: for IC50: read-out: IC50 [μM] block CCL19 induced calcium signaling
How it was run: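 Calcium mobilization was recorded in U87.CD4 cells stably carrying human CXCR2 (stimulated with CXCL8), CCR7 (stimulated with CCL19) or CCR5. Cells were plated at 20,000 cells/well, cultured overnight at 37°C in 5% CO2, and incubated 45 min at room temperature in the dark before reading.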

[1] = CCL19 induced calcium signaling
[2] = classification as decoy or active on CCR7
[3] = CCL19-induced calcium signaling
[4] = classification of tested compounds as decoy or active

SMILES | IC50 [1] [µM] | Decoy – 0 Active – 1 [2] | IC50 [3] [µM] | Decoy – 0 Active – 1 [4]
Cc1ccn(C)c(=O)c1NC(=O)NC1CCCc2ccc(Cl)cc21 (centres unmarked) [C196, Cc1ccn(C)c(=O)c1NC(=O)NC1CCCc2ccc(Cl)cc21] | > 50 | 0 |  | 
Cc1cc(C)cc(Nc2c(-c3cccc(O)c3)nc3ncccn23)c1 [C182, Cc1cc(C)cc(Nc2c(-c3cccc(O)c3)nc3ncccn23)c1] | > 50 | 0 |  | 
O=C(CNc1c(NCc2ccc3c(c2)OCO3)c(=O)c1=O)N1CCCC1 [C010, O=C(CNc1c(NCc2ccc3c(c2)OCO3)c(=O)c1=O)N1CCCC1] |  |  | > 50 | 0
CCCC1(C(=O)O)CCN(C(=O)c2cccc(C)c2OC)CC1O (centres unmarked) [C207, CCCC1(C(=O)[O-])CCN(C(=O)c2cccc(C)c2OC)CC1O] | > 50 | 0 |  | 
CNC(=O)[C@H](NC1=NS(=O)(=O)c2ccccc21)C(C)C [C157, CNC(=O)[C@H](NC1=NS(=O)(=O)c2ccccc21)C(C)C] |  |  | > 50 | 0
O=C(CNc1c(N2CCN(c3ccc(Cl)cc3)CC2)c(=O)c1=O)NCc1ccco1 [C008, O=C(CNc1c(N2CCN(c3ccc(Cl)cc3)CC2)c(=O)c1=O)NCc1ccco1] |  |  | > 50 | 0
Cn1c(C2CC(=O)N(c3cccc(C(F)(F)F)c3)C2)nc2ccccc21 (centres unmarked) [C194, Cn1c(C2CC(=O)N(c3cccc(C(F)(F)F)c3)C2)nc2ccccc21] | > 50 | 0 |  | 
COc1cccc(C2CC(O)CN2Cc2nc3ccccc3[nH]2)c1 (centres unmarked) [C279, COc1cccc(C2CC(O)CN2Cc2nc3ccccc3[nH]2)c1] | > 50 | 0 |  | 
CC(=O)c1cccc(NC(=O)NC(c2ccc(C)o2)C(C)(C)C)c1 (centres unmarked) [C062, CC(=O)c1cccc(NC(=O)NC(c2ccc(C)o2)C(C)(C)C)c1] |  |  | > 10 | 0
Cc1cc(NCC(=O)N(C)Cc2ccco2)ccc1C(=O)N(C)C [C060, Cc1cc(NCC(=O)N(C)Cc2ccco2)ccc1C(=O)N(C)C] |  |  | > 10 | 0
CN(C)C(=O)c1cccc(NCC(=O)N(C)C2CCCCC2)c1 [C075, CN(C)C(=O)c1cccc(NCC(=O)N(C)C2CCCCC2)c1] |  |  | > 10 | 0
Cc1ccc(S(=O)(=O)N(CCC(N)=O)Cc2ccccc2)cc1 [C258, Cc1ccc(cc1)S(=O)(=O)N(CCC(=O)N)Cc2ccccc2] | > 50 | 0 |  | 
CC(C)(C(=O)NC1CCC(C(=O)O)C1)c1cccc(F)c1 (centres unmarked) [C210, CC(C)(C(=O)NC1CCC(C(=O)[O-])C1)c1cccc(F)c1] | > 50 | 0 |  | 
O=C([C@@H]1CCCO1)N1CCc2ncnc(NCCc3ccco3)c2CC1 [C086, O=C([C@@H]1CCCO1)N1CCc2ncnc(NCCc3ccco3)c2CC1] |  |  | > 50 | 0
Cn1ncc(NC(=S)Nc2ccccc2C(F)(F)F)c1C(N)=O [C037, Cn1ncc(NC(=S)Nc2ccccc2C(F)(F)F)c1C(N)=O] |  |  | > 30 | 0
CC(O)CNc1c(NCc2ccc3c(c2)OCO3)c(=O)c1=O (centres unmarked) [C001, CC(O)CNc1c(NCc2ccc3c(c2)OCO3)c(=O)c1=O] |  |  | > 50 | 0
FC(F)(F)c1cccc(NC(=S)NCc2ccccc2C(F)(F)F)c1 [C036, FC(F)(F)c1cccc(NC(=S)NCc2ccccc2C(F)(F)F)c1] |  |  | > 30 | 0
NC(=O)CN1CC(CCN2CCCC2=O)c2ccccc21 (centres unmarked) [C214, NC(=O)CN1CC(CCN2CCCC2=O)c2ccccc21] | > 50 | 0 |  | 
COc1ccc2c(c1)CCCN2C(=O)C1CC(=O)N(c2ccc3c(c2)OCCO3)C1 (centres unmarked) [C218, COc1ccc2c(c1)CCCN2C(=O)C1CC(=O)N(c2ccc3c(c2)OCCO3)C1] | > 50 | 0 |  | 

SMILES | IC50 [1] [µM] | Decoy – 0 Active – 1 [2] | IC50 [3] [µM] | Decoy – 0 Active – 1 [4]
Cc1ccc2c(CCNc3nc4[nH]ncc4c(=O)[nH]3)cn(C)c2c1 [C206, Cc1ccc2c(CCNc3nc4[nH]ncc4c(=O)[nH]3)cn(C)c2c1] | > 50 | 0 |  | 
CCOC(=O)c1sc2ncnc(NC[C@H]3CCCO3)c2c1C [C103, CCOC(=O)c1sc2ncnc(NC[C@H]3CCCO3)c2c1C] |  |  | > 50 | 0
COc1ccc(O)c(/C=C(\C#N)C(=O)Nc2cccc(Cl)c2Cl)c1 [C164, COc1ccc(O)c(/C=C(\C#N)C(=O)Nc2cccc(Cl)c2Cl)c1] | > 50 | 0 |  | 
Cc1ccc(C(NC(=O)Nc2ccc(C(N)=O)c(Cl)c2)C(C)(C)C)o1 (centres unmarked) [C056, Cc1ccc(C(NC(=O)Nc2ccc(C(N)=O)c(Cl)c2)C(C)(C)C)o1] |  |  | > 10 | 0
CCCc1ccc(S(=O)(=O)NC2COc3ccc(OC)cc3C2)cc1 (centres unmarked) [C254, CCCc1ccc(cc1)S(=O)(=O)NC2Cc3cc(ccc3OC2)OC] | > 50 | 0 |  | 
Cc1c(C(=O)NC2CC2c2ccc(F)cc2F)[nH]c2c1C(=O)CCC2 (centres unmarked) [C205, Cc1c(C(=O)NC2CC2c2ccc(F)cc2F)[nH]c2c1C(=O)CCC2] | > 50 | 0 |  | 
O=C(O[C@@H]1CS(=O)(=O)C[C@@H]1Nc1ccccc1)c1ccccc1 [C123, O=C(O[C@@H]1CS(=O)(=O)C[C@@H]1Nc1ccccc1)c1ccccc1] |  |  | > 50 | 0
COc1ccc(S(=O)(=O)N(CC(=O)Nc2cccc(OC)c2)c2ccccc2)cc1 [C245, COc1ccc(cc1)S(=O)(=O)N(CC(=O)Nc2cccc(c2)OC)c3ccccc3] | > 50 | 0 |  | 
CCNC(=O)c1cccc(NC(=O)CN(Cc2ccco2)C2CCCC2)c1 [C063, CCNC(=O)c1cccc(NC(=O)C[NH+](Cc2ccco2)C2CCCC2)c1] |  |  | > 10 | 0
COc1cccc(N2CC(NC(=O)c3cccc4ccccc34)CC2=O)c1 (centres unmarked) [C188, COc1cccc(N2CC(NC(=O)c3cccc4ccccc34)CC2=O)c1] | > 50 | 0 |  | 
CNC(=O)c1cccc(NC(=O)NCC(C)(C)c2cccs2)c1C [C126, CNC(=O)c1cccc(NC(=O)NCC(C)(C)c2cccs2)c1C] |  |  | > 50 | 0
CN(C)C(=O)c1cccc(NC(=O)NCCC2=CCCCC2)c1 [C127, CN(C)C(=O)c1cccc(NC(=O)NCCC2=CCCCC2)c1] |  |  | > 50 | 0
NC(=O)C1CC(O)CN1C(=S)Nc1ccc(S(=O)(=O)N2CCOCC2)cc1 (centres unmarked) [C028, NC(=O)C1CC(O)CN1C(=S)Nc1ccc(cc1)S(=O)(=O)N1CCOCC1] |  |  | > 30 | 0
Cc1noc(C)c1CNC(=O)COc1ccccc1CO [C172, Cc1noc(C)c1CNC(=O)COc1ccccc1CO] | > 50 | 0 |  | 
CCOC(=O)NC(=S)Nc1ncccn1 [C045, S=C(NC(OCC)=O)NC1=NC=CC=N1] |  |  | > 30 | 0
CCN1CCCC1C1CCCN1C(=O)CCc1c[nH]c2ccccc12 (centres unmarked) [C282, CCN1CCCC1C1CCCN1C(=O)CCc1c[nH]c2ccccc12] | > 50 | 0 |  | 
CN(C)S(=O)(=O)c1ccc(-c2nnc(C(=O)NCc3ccccn3)o2)cc1 [C085, CN(C)S(=O)(=O)c1ccc(-c2nnc(C(=O)NCc3ccccn3)o2)cc1] |  |  | > 50 | 0
O=C1CC(C(=O)NCc2csc3c2CCCC3)C2(CCCC2)O1 (centres unmarked) [C229, O=C1CC(C(=O)NCc2csc3c2CCCC3)C2(CCCC2)O1] | > 50 | 0 |  | 
